Source: ChEMBL document CHEMBL4831532
Active and inactive are the calls of the source. The calls are words filed in the database; no cut-off is given here.

Tests used:
SARS-CoV-2 [1] = experiment: microbe, parasite or virus in culture; settings: Severe acute respiratory syndrome coronavirus 2, JPN/TY/WK-251, Vero C1008, 72 h
SARS-CoV-2 [2] = assay type: functional, organism-based; settings: Severe acute respiratory syndrome coronavirus 2; JPN/TY/WK-251; Vero E6; dose 10.0 µM, time 3.0 day
SARS-CoV-2 [3] = assay type: functional, Severe acute respiratory syndrome coronavirus 2, JPN/TY/WK-251, Vero E6
[4] = Inhibition of SARS-CoV-2 3CL protease using HiyteFluor-488ESATL-QSGLRKAK-(QXL)-NH2 fluorogenic peptide as substrate preincubated for 15 mins followed by substrate addition and measured after 30 mins by FRET assay; design: species or system Severe acute respiratory syndrome coronavirus 2
[5] = Binding affinity to SARS-CoV-2 3CL protease; design: species or system Severe acute respiratory syndrome coronavirus 2
SARS-CoV-2 [6] = assay type: functional, Severe acute respiratory syndrome coronavirus 2, JPN/TY/WK-251, Vero E6; settings: dose 1-100 µM; time 72 hrs; at 1 to 100 µM
Vero C1008 = experiment: Cytotoxicity against African green monkey Vero E6 cells incubated for 3 days; assay type: cell-based; settings: chlorocebus sabaeus, vero c1008, 72 h; time 3 day

Cc1nc2c(C(=O)Oc3cncc(Cl)c3)cccc2[nH]1
EC50 (SARS-CoV-2 [1]): 57.1 µM

O=C(Oc1cncc(Cl)c1)c1ccc2c(ccn2S(=O)(=O)c2cccc([N+](=O)[O-])c2)c1
EC50 (SARS-CoV-2 [1]): 69.8 µM

Cc1c[nH]c2cccc(C(=O)Oc3cncc(Cl)c3)c12
EC50 (SARS-CoV-2 [1]): 56.7 µM

Cc1c(Cl)cncc1OC(=O)c1cccc2[nH]ccc12
EC50 (SARS-CoV-2 [1]): 19.3 µM

O=C(Nc1cncc(Cl)c1)c1cccc2[nH]ccc12
EC50 (SARS-CoV-2 [1]): > 100 µM

O=C(Oc1cncc(Cl)c1)c1cccc2c1OCCN2
EC50 (SARS-CoV-2 [1]): > 100 µM

Cc1ncc(OC(=O)c2cccc3[nH]ccc23)cc1Cl
EC50 (SARS-CoV-2 [1]): 30 µM

Cc1cc(C(=O)Oc2cncc(Cl)c2)c2cc[nH]c2c1
EC50 (SARS-CoV-2 [1]): 3.1 µM

O=C(Oc1cncc(Cl)c1)c1cccc2c1CCN2
Activity (SARS-CoV-2 [2]): Active | EC50 (SARS-CoV-2 [1]): 15 µM | Activity (SARS-CoV-2 [3]; dose 100 µM, time 3 day): 100% | IC50 [4]: 0.32 µM

O=C(Nc1cccc(Cl)c1)c1cccc2[nH]ccc12
EC50 (SARS-CoV-2 [1]): > 100 µM | IC50 [4]: 100 µM

Cc1ncc(OC(=O)c2cccc3[nH]cnc23)cc1Cl
EC50 (SARS-CoV-2 [1]): 57 µM

Cc1ccc2[nH]ccc2c1C(=O)Oc1cncc(Cl)c1
EC50 (SARS-CoV-2 [1]): > 100 µM

C=CCc1cn(CC=C)c2cccc(C(=O)Oc3cncc(Cl)c3)c12
EC50 (SARS-CoV-2 [1]): 11.5 µM

O=C(Oc1cncc(Cl)c1)c1cc(F)cc2[nH]ccc12
EC50 (SARS-CoV-2 [1]): 14 µM

COc1cccc2[nH]c(C(=O)Oc3cncc(Cl)c3)cc12
EC50 (SARS-CoV-2 [1]): 8.1 µM

COc1cccc2[nH]c(C(=O)N[C@@H](CC(C)C)C(=O)N[C@@H](C[C@@H]3CCNC3=O)C(=O)c3nc4ccccc4s3)cc12
Ki [5]: 0.0176 µM

Cc1ncc(Cl)cc1OC(=O)c1cccc2[nH]ccc12
EC50 (SARS-CoV-2 [1]): > 100 µM | IC50 [4]: > 100 µM

O=C(Oc1cncc(Cl)c1)c1ccc2[nH]ccc2c1
EC50 (SARS-CoV-2 [1]): 43.7 µM

CCC(CC)COC(=O)[C@H](C)N[P@](=O)(OC[C@H]1O[C@@](C#N)(c2ccc3c(N)ncnn23)[C@H](O)[C@@H]1O)Oc1ccccc1
Activity (SARS-CoV-2 [2]): Active | Activity (SARS-CoV-2 [6]): 100% | Activity (SARS-CoV-2 [3]; Severe acute respiratory syndrome coronavirus 2, JPN/TY/WK-251, Vero E6, dose 100.0 µM, time 3.0 day): Active

O=C(Oc1cncc(Cl)c1)c1cccc2[nH]ccc12
Activity (SARS-CoV-2 [2]): Active | CC50 (Vero C1008): > 100 µM | Activity (SARS-CoV-2 [6]): 100% | Activity (SARS-CoV-2 [3]; dose 100 µM, time 3 day): 100%

C=CCn1ccc2c(C(=O)Oc3cncc(Cl)c3)cccc21
EC50 (SARS-CoV-2 [1]): 15 µM

O=C(Oc1cncc(Cl)c1)c1cccc2[nH]cnc12
EC50 (SARS-CoV-2 [1]): > 100 µM

O=C(Oc1cncc(Cl)c1)c1cccc2ncoc12
EC50 (SARS-CoV-2 [1]): > 100 µM
